This is an account of results in patent US20230272083A1, “COMBINATION OF AN ANTI-PD-L1 ANTIBODY AND A DNA-PK INHIBITOR FOR THE TREATMENT OF CANCER” (Merck Patent GmbH, priority 2017, published 2023).

For series [1], the system named is murine colon tumor model MC38. In words: M3814 and avelumab in syngeneic MC38 tumor model (Example 1). The series is classed as in vivo, C57BL6/N mice. The conditions noted are these: M3814 150 mg/kg orally once daily, avelumab 400 μg/mouse intravenously on days 3, 6 and 9; for median time the tumors needed to double in size as compared to their initial volume at day 0: Kaplan-Meyer evaluation. The text has this: This model allows the use of immunocompetent mice, a necessary requirement to study the T-cell mediated antitumor effect of Avelumab. The experimental set up included the induction of MC38 tumors in C57BL6/N mice by injection of 1×10^6 tumor cells into the right flank of the animals. Tumor growth was followed over time by measuring length and width using a caliper. When tumors were established to an average size of 50-100 mm^3, mice were subdivided in 4 treatment groups with 10 animals each, and treatment started. This day was defined as day 0. Group 1 received vehicle treatment. Group 2 received M3814 orally once daily at 150 mg/kg in a volume of 10 ml/kg. Group 3 received avelumab intravenously once daily at 400 μg/mouse in a volume of 5 ml/kg on days 3, 6 and 9. Group 4 received M3814 orally once daily at 150 mg/kg in a volume of 10 ml/kg and avelumab intravenously once daily at 400 μg/mouse in a volume of 5 ml/kg on days 3, 6 and 9.

The test system of series [2] is p53 wild-type cancer cells (A549, A375, H460). In words: Cell cycle arrest and senescence after ionizing radiation plus M3814. The series is classed as cell-based.
The test system of series [3] is A549 and A375 cells. Put plainly: Nanostring PanCancer Immune panel mRNA analysis of IR/M3814 induced senescent cells. The series is classed as cell-based. The method, then:
(§1) These substantial changes in gene expression were built gradually and correlated with the development of senescence phenotype. Several proteins from the induced subset were measured in the cell media (Meso Scale Discovery) and confirmed that they are secreted by senescent cells in the absence of M3814.

Series [4] relates to human PBMC-derived immune cells. In words: Effect of culture media from M3814-induced senescent cells on immune cells (live imaging). The series is classed as cell-based. The procedure:
as §1

The target in series [5] is DNA-PK (Homo sapiens, UniProt P78527). In words: Crystallographic and enzyme kinetics studies. The series is classed as biochemical. From the text: DNA-PK, together with five additional protein factors (Ku70, Ku80, XRCC4, Ligase IV and Artemis) plays a critical role in the repair of DSB via NHEJ. Kinase activity of DNA-PK is essential for proper and timely DNA repair and the long-term survival of cancer cells.

For series [6] the following is noted: 10 mg/kg dose; cited from earlier work.

For the compound `COc1ccc([C@@H](O)c2cc(-c3ncnc4cc(N5CCOCC5)ccc34)c(F)cc2Cl)nn1` [Compound M3814, (S)-[2-chloro-4-fluoro-5-(7-morpholin-4-yl-quinazolin-4-yl)-phenyl]-(6-methoxypyridazin-3-yl)-methanol], in series [1], the “median time the tumors needed to double in size as compared to their initial volume at day 0” value turned out to be 10 days and the “T/C values calculated at day 13” value is 47%. In addition, the “reversibility of senescence phenotype following compound removal” value in series [2] (A549 cells, live cell imaging and BrdU labeling) is given as “not reversible”. Moreover, in series [2] (IR 2-5Gy plus sustained M3814), the “time to typical senescence phenotype (large/flat morphology, β-Gal staining)” value is given as 4-7 days. For the same compound, the “ATM dependent signaling, including CHK2 and p53-dependent cell cycle arrest” value in series [2] (in the presence of DDSBs) is on record as “enhanced activation of the ATM dependent signaling”. In addition, the “cell cycle arrest in isogenic p53-null cells” value in series [2] (isogenic p53-null A549 cells, IR plus M3814) is “lost the ability to fully arrest their cell cycle”. Also, in series [2] (proliferating p53 wild-type A549, A375, H460, single dose of ionizing radiation (2-5Gy) and sustained exposure to M3814), the cell cycle effect result was “complete cell cycle block”. In addition, the “upregulation of eighteen immune response genes compared to controls” value in series [3] is reported as 3-150 fold. The “immunomodulatory effect of culture media from M3814-induced senescent cells” value in series [4] is listed as “increased immunomodulatory effect”. Moreover, in series [5], the “inhibition of DNA-PK” value is “potent and selective ATP-competitive inhibitor”.

In the case of “avelumab: fully human monoclonal antibody of the immunoglobulin (Ig) G1 isotype; selectively binds to PD-L1”, in series [1], the “median time the tumors needed to double in size as compared to their initial volume at day 0” value is listed as 13 days and the “T/C values calculated at day 13” value is on record as 60%. For the same compound, in series [6], the receptor occupancy entry is on record as “excellent receptor occupancy” and the tolerability entry is on record as “well tolerated”.
